In PMC5516890 (Bioconjugate chemistry, 2016):
Entries after “also recorded” stand apart in the source; their conditions may differ.

Test system: NOD-SCID mice bearing isogenic PSMA^+ PC3 PIP and PSMA^− PC3 flu tumors
Assay: Biodistribution in tumor-bearing mice
Details: for PSMA^+ PIP tumor uptake: PSMA+ PC3 PIP xenograft; for PSMA^− flu tumor uptake: PSMA− PC3 flu xenograft
[1] = 30 min postinjection, tail vein, ± SD, n = 3–4
[2] = 60 min postinjection, tail vein, ± SD, n = 3–4
[3] = 120 min postinjection, tail vein, ± SD, n = 3–4
[4] = 240 min postinjection, tail vein, ± SD, n = 3–4

O=C(O)CCC(NC(=O)NC(CCCCNC(=O)c1ccc([18F])nc1)C(=O)O)C(=O)O (stereo not shown) [[^18F]DCFPyL, 2-(3-{1-carboxy-5-[(6-[^18F]fluoropyridine-3-carbonyl)-amino]-pentyl}-ureido)-pentanedioic acid, reference compound]
PSMA^+ PC3 PIP tumor uptake compared to [^18F]YC-88 (1, 2, and 4 h): significantly higher | blood uptake [1]: 1.67 ± 0.54 % ID/g | bone uptake [1]: 1.00 ± 0.51 % ID/g | fat uptake [1]: 1.42 ± 0.51 % ID/g | heart uptake [1]: 0.84 ± 0.16 % ID/g | kidney uptake [1]: 135.28 ± 9.75 % ID/g | large intestine uptake [1]: 1.17 ± 0.06 % ID/g | liver uptake [1]: 3.54 ± 0.20 % ID/g | muscle uptake [1]: 0.54 ± 0.05 % ID/g | salivary gland uptake [1]: 2.60 ± 0.60 % ID/g | small intestine uptake [1]: 0.83 ± 0.03 % ID/g | spleen uptake [1]: 10.67 ± 1.68 % ID/g | stomach uptake [1]: 0.90 ± 0.14 % ID/g | blood uptake [2]: 0.72 ± 0.22 % ID/g | fat uptake [2]: 0.84 ± 0.44 % ID/g | heart uptake [2]: 0.32 ± 0.09 % ID/g | large intestine uptake [2]: 0.49 ± 0.05 % ID/g | liver uptake [2]: 3.48 ± 0.21 % ID/g | lung uptake [2]: 1.41 ± 0.25 % ID/g | muscle uptake [2]: 0.36 ± 0.18 % ID/g | pancreas uptake [2]: 0.61 ± 0.21 % ID/g | salivary gland uptake [2]: 1.57 ± 0.18 % ID/g | small intestine uptake [2]: 0.56 ± 0.12 % ID/g | spleen uptake [2]: 5.61 ± 0.56 % ID/g | stomach uptake [2]: 0.50 ± 0.10 % ID/g | bladder (empty) uptake [3]: 11.40 ± 9.95 % ID/g | blood uptake [3]: 0.23 ± 0.05 % ID/g | bone uptake [3]: 0.37 ± 0.05 % ID/g | fat uptake [3]: 0.15 ± 0.02 % ID/g | kidney uptake [3]: 61.23 ± 20.36 % ID/g | liver uptake [3]: 3.08 ± 0.13 % ID/g | lung uptake [3]: 0.41 ± 0.09 % ID/g | muscle uptake [3]: 0.08 ± 0.02 % ID/g | pancreas uptake [3]: 0.23 ± 0.05 % ID/g | salivary gland uptake [3]: 0.43 ± 0.15 % ID/g | small intestine uptake [3]: 0.55 ± 0.50 % ID/g | spleen uptake [3]: 1.64 ± 0.40 % ID/g | stomach uptake [3]: 0.21 ± 0.06 % ID/g | bladder (empty) uptake [4]: 16.85 ± 10.15 % ID/g | blood uptake [4]: 0.11 ± 0.00 % ID/g | bone uptake [4]: 0.71 ± 0.40 % ID/g | fat uptake [4]: 0.10 ± 0.05 % ID/g | heart uptake [4]: 0.06 ± 0.01 % ID/g | kidney uptake [4]: 19.36 ± 2.32 % ID/g | large intestine uptake [4]: 0.83 ± 1.00 % ID/g | liver uptake [4]: 2.30 ± 0.28 % ID/g | lung uptake [4]: 0.16 ± 0.02 % ID/g | muscle uptake [4]: 0.07 ± 0.04 % ID/g | pancreas uptake [4]: 0.09 ± 0.02 % ID/g | salivary gland uptake [4]: 0.32 ± 0.22 % ID/g | small intestine uptake [4]: 0.16 ± 0.04 % ID/g | spleen uptake [4]: 0.55 ± 0.11 % ID/g | stomach uptake [4]: 0.09 ± 0.03 % ID/g | PSMA^+ PIP tumor uptake [1]: 64.85 ± 19.22 % ID/g | PSMA^+ PIP tumor uptake [2]: 84.29 ± 12.29 % ID/g | PSMA^+ PIP tumor uptake [3]: 69.55 ± 1.71 % ID/g | PSMA^+ PIP tumor uptake [4]: 74.34 ± 7.28 % ID/g | PSMA^− flu tumor uptake [1]: 1.50 ± 0.71 % ID/g | PSMA^− flu tumor uptake [2]: 0.46 ± 0.06 % ID/g | PSMA^− flu tumor uptake [3]: 0.21 ± 0.06 % ID/g | PSMA^− flu tumor uptake [4]: 0.21 ± 0.17 % ID/g

O=C(O)CCC(NC(=O)NC(CCCCNC(=O)CCc1cn(CC[18F])nn1)C(=O)O)C(=O)O (stereo not shown) [[^18F]YC-88, 2-[3-(1-carboxy-5-{3-[1-(2-[^18F]fluoroethyl)-1H-1,2,3-triazol-yl]propanamido}pentyl)ureido]-pentanedioic acid]
difference in PSMA^+ PC3 PIP tumor uptake between [^18F]YC-88 and [^18F]DCFPyL (30 min, P > 0.05): not statistically significant | salivary gland uptake compared to [^18F]DCFPyL (30 min and 1 h postinjection): significantly less; also recorded: significantly lower | PIP/flu uptake ratio (30 min postinjection): 70 | PIP/kidney uptake ratio (tumor-to-kidney) (30 min postinjection): 0.9 | bladder (empty) uptake [1]: 17.90 ± 14.18 % ID/g | blood uptake [1]: 1.02 ± 0.43 % ID/g | bone uptake [1]: 0.40 ± 0.16 % ID/g | fat uptake [1]: 0.33 ± 0.08 % ID/g | heart uptake [1]: 0.36 ± 0.18 % ID/g | kidney uptake [1]: 44.08 ± 12.52 % ID/g | large intestine uptake [1]: 0.87 ± 0.85 % ID/g | liver uptake [1]: 1.70 ± 0.21 % ID/g | lung uptake [1]: 1.09 ± 0.31 % ID/g | muscle uptake [1]: 0.22 ± 0.07 % ID/g | pancreas uptake [1]: 0.44 ± 0.13 % ID/g | salivary gland uptake [1]: 0.85 ± 0.39 % ID/g | small intestine uptake [1]: 0.37 ± 0.11 % ID/g | spleen uptake [1]: 1.67 ± 0.46 % ID/g | stomach uptake [1]: 0.41 ± 0.14 % ID/g | PIP/flu uptake ratio (60 min postinjection): 170 | PIP/kidney uptake ratio (tumor-to-kidney) (60 min postinjection): 2.4 | bladder (empty) uptake [2]: 7.78 ± 4.15 % ID/g | blood uptake [2]: 0.29 ± 0.08 % ID/g | bone uptake [2]: 0.16 ± 0.04 % ID/g | fat uptake [2]: 0.31 ± 0.18 % ID/g | heart uptake [2]: 0.18 ± 0.06 % ID/g | kidney uptake [2]: 20.08 ± 8.09 % ID/g | large intestine uptake [2]: 0.27 ± 0.14 % ID/g | liver uptake [2]: 1.73 ± 0.14 % ID/g | lung uptake [2]: 0.49 ± 0.24 % ID/g | muscle uptake [2]: 0.11 ± 0.06 % ID/g | pancreas uptake [2]: 0.16 ± 0.06 % ID/g | salivary gland uptake [2]: 0.31 ± 0.07 % ID/g | small intestine uptake [2]: 0.23 ± 0.04 % ID/g | spleen uptake [2]: 0.69 ± 0.23 % ID/g | stomach uptake [2]: 0.34 ± 0.20 % ID/g | PIP/flu uptake ratio (120 min postinjection): 243 | PIP/kidney uptake ratio (tumor-to-kidney) (120 min postinjection): 4 | bladder (empty) uptake [3]: 4.33 ± 2.64 % ID/g | blood uptake [3]: 0.28 ± 0.23 % ID/g | bone uptake [3]: 0.37 ± 0.36 % ID/g | fat uptake [3]: 0.17 ± 0.10 % ID/g | heart uptake [3]: 0.07 ± 0.02 % ID/g | kidney uptake [3]: 10.20 ± 2.76 % ID/g | large intestine uptake [3]: 0.31 ± 0.13 % ID/g | liver uptake [3]: 1.74 ± 0.23 % ID/g | lung uptake [3]: 0.22 ± 0.10 % ID/g | muscle uptake [3]: 0.10 ± 0.03 % ID/g | pancreas uptake [3]: 0.11 ± 0.06 % ID/g | salivary gland uptake [3]: 0.25 ± 0.07 % ID/g | small intestine uptake [3]: 0.18 ± 0.07 % ID/g | spleen uptake [3]: 0.29 ± 0.16 % ID/g | stomach uptake [3]: 0.12 ± 0.07 % ID/g | PIP/flu uptake ratio (240 min postinjection): 368 | PIP/kidney uptake ratio (tumor-to-kidney) (240 min postinjection): 6.7 | bladder (empty) uptake [4]: 1.22 ± 0.89 % ID/g | blood uptake [4]: 0.12 ± 0.04 % ID/g | bone uptake [4]: 0.11 ± 0.03 % ID/g | fat uptake [4]: 0.10 ± 0.04 % ID/g | heart uptake [4]: 0.04 ± 0.01 % ID/g | kidney uptake [4]: 3.84 ± 0.29 % ID/g | large intestine uptake [4]: 0.23 ± 0.09 % ID/g | liver uptake [4]: 1.45 ± 0.14 % ID/g | lung uptake [4]: 0.13 ± 0.02 % ID/g | muscle uptake [4]: 0.06 ± 0.03 % ID/g | pancreas uptake [4]: 0.07 ± 0.02 % ID/g | salivary gland uptake [4]: 0.14 ± 0.02 % ID/g | small intestine uptake [4]: 0.14 ± 0.03 % ID/g | spleen uptake [4]: 0.15 ± 0.05 % ID/g | stomach uptake [4]: 0.06 ± 0.02 % ID/g | PSMA^+ PIP tumor uptake [1]: 40.31 ± 5.13 % ID/g | PSMA^+ PIP tumor uptake [2]: 47.58 ± 5.19 % ID/g | PSMA^+ PIP tumor uptake [3]: 41.29 ± 4.22 % ID/g | PSMA^+ PIP tumor uptake [4]: 25.74 ± 7.33 % ID/g | PSMA^− flu tumor uptake [1]: 0.58 ± 0.23 % ID/g | PSMA^− flu tumor uptake [2]: 0.28 ± 0.13 % ID/g | PSMA^− flu tumor uptake [3]: 0.17 ± 0.03 % ID/g | PSMA^− flu tumor uptake [4]: 0.07 ± 0.01 % ID/g | kidney, liver, and spleen uptake compared to [^18F]DCFPyL (all time points, two-tailed Student's t test): significantly lower | difference in PSMA^− PC3 flu tumor uptake between the two radiotracers (any time): no significant difference | bone uptake (at all time points): < 1 % ID/g
